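Compound exposure: 48 hours, 5 concentrations, 96-well plates. Abbreviation: GI50, concentration required for 50% inhibition of growth. At the TGI there is no net growth.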
Columns and labels:
Assay in all cases: NCI-60 cell line screen, 48 h
[1] = system: 786-0 renal
[2] = system: A498 renal
[3] = system: A549 NSCLC
[4] = system: ACHN renal
[5] = system: BT-549 breast
[6] = system: CAKI-1 renal
[7] = system: CCRF-CEM leukemia
[8] = system: COLO 205 colon
[9] = system: DU-145 prostate
[10] = system: EKVX NSCLC
[11] = system: HCC-2998 colon
[12] = system: HCT-116 colon
[13] = system: HCT-15 colon
[14] = system: HL-60(TB) leukemia
[15] = system: HOP-62 NSCLC
[16] = system: HS 578T breast
[17] = system: HT29 colon
[18] = system: IGROV1 ovarian
[19] = system: K-562 leukemia
[20] = system: KM12 colon
[21] = system: LOX IMVI melanoma
[22] = system: M14 melanoma
[23] = system: MALME-3M melanoma
[24] = system: MCF7 breast
[25] = system: MDA-MB-231 breast
[26] = system: MDA-MB-435
[27] = system: MOLT-4 leukemia
[28] = system: NCI-H226 lung
[29] = system: NCI-H23 lung
[30] = system: NCI-H460 lung
[31] = system: NCI-H522 lung
[32] = system: NCI/ADR-RES ovarian
[33] = system: OVCAR-3 ovarian
[34] = system: OVCAR-4 ovarian
[35] = system: OVCAR-5 ovarian
[36] = system: OVCAR-8 ovarian
[37] = system: PC-3 prostate
[38] = system: RPMI-8226 leukemia
[39] = system: RXF 393 renal
[40] = system: SF-268 CNS
[41] = system: SF-295 CNS
[42] = system: SF-539 CNS
[43] = system: SK-MEL-2 melanoma
[44] = system: SK-MEL-28 melanoma
[45] = system: SK-MEL-5 melanoma
[46] = system: SK-OV-3 ovarian
[47] = system: SN12C renal
[48] = system: SNB-19 CNS
[49] = system: SNB-75 CNS
[50] = system: SW-620 colon
[51] = system: T-47D breast
[52] = system: TK-10 renal
[53] = system: U251 CNS
[54] = system: UACC-257 melanoma
[55] = system: UACC-62 melanoma
[56] = system: UO-31 renal

Compound: CCOC(=O)c1csc(NC(=O)COc2cccc(/C=C3\CSc4ccccc4C3=O)c2)n1
- GI50 [1]: 561 nM
- TGI [1]: 1690 nM
- GI50 [2]: 12100 nM
- TGI [2]: 24500 nM
- GI50 [3]: 2410 nM
- TGI [3]: 18500 nM
- GI50 [4]: 2640 nM
- TGI [4]: 8990 nM
- GI50 [5]: 2290 nM
- TGI [5]: 6220 nM
- GI50 [6]: 1260 nM
- TGI [6]: 18200 nM
- GI50 [7]: 472 nM
- GI50 [8]: 8580 nM
- TGI [8]: 22600 nM
- GI50 [9]: 409 nM
- TGI [9]: 932 nM
- GI50 [10]: 2290 nM
- TGI [10]: 19900 nM
- GI50 [11]: 44.7 nM
- TGI [11]: 382 nM
- GI50 [12]: 1630 nM
- TGI [12]: 3040 nM
- GI50 [13]: 2060 nM
- TGI [13]: 4620 nM
- GI50 [14]: 638 nM
- TGI [14]: 2110 nM
- GI50 [15]: 1330 nM
- TGI [15]: 3900 nM
- GI50 [16]: 1450 nM
- TGI [16]: 7360 nM
- GI50 [17]: 608 nM
- TGI [17]: 2180 nM
- GI50 [18]: 166 nM
- TGI [18]: 363 nM
- GI50 [19]: > 100000 nM
- TGI [19]: > 100000 nM
- GI50 [20]: 289 nM
- TGI [20]: 1350 nM
- GI50 [21]: 71 nM
- TGI [21]: 208 nM
- GI50 [22]: 1860 nM
- TGI [22]: 4180 nM
- GI50 [23]: 296 nM
- TGI [23]: 1220 nM
- GI50 [24]: 1130 nM
- TGI [24]: 7250 nM
- GI50 [25]: 3870 nM
- TGI [25]: 19100 nM
- GI50 [26]: 2050 nM
- TGI [26]: 5060 nM
- GI50 [27]: > 100000 nM
- TGI [27]: > 100000 nM
- GI50 [28]: 1520 nM
- TGI [28]: 3410 nM
- GI50 [29]: 105 nM
- TGI [29]: 570 nM
- GI50 [30]: 9300 nM
- TGI [30]: 25000 nM
- GI50 [31]: 581 nM
- TGI [31]: 1490 nM
- GI50 [32]: 2460 nM
- TGI [32]: 5660 nM
- GI50 [33]: 158 nM
- TGI [33]: 332 nM
- GI50 [34]: 3690 nM
- TGI [34]: 17900 nM
- GI50 [35]: 1040 nM
- TGI [35]: 5420 nM
- GI50 [36]: 1590 nM
- TGI [36]: 6970 nM
- GI50 [37]: 246 nM
- TGI [37]: 1520 nM
- GI50 [38]: > 100000 nM
- TGI [38]: > 100000 nM
- GI50 [39]: 2860 nM
- TGI [39]: 11200 nM
- GI50 [40]: 204 nM
- TGI [40]: 502 nM
- GI50 [41]: 908 nM
- TGI [41]: 2440 nM
- GI50 [42]: 421 nM
- TGI [42]: 1600 nM
- GI50 [43]: 448 nM
- TGI [43]: 989 nM
- GI50 [44]: 2510 nM
- TGI [44]: 6180 nM
- GI50 [45]: 5040 nM
- TGI [45]: 17300 nM
- GI50 [46]: 13100 nM
- TGI [46]: 25900 nM
- GI50 [47]: 1380 nM
- TGI [47]: 6580 nM
- GI50 [48]: 9190 nM
- TGI [48]: 22700 nM
- GI50 [49]: 275 nM
- TGI [49]: 4450 nM
- GI50 [50]: 992 nM
- TGI [50]: 2700 nM
- GI50 [51]: 6790 nM
- TGI [51]: 26700 nM
- GI50 [52]: 2110 nM
- TGI [52]: 9620 nM
- GI50 [53]: 585 nM
- TGI [53]: 1310 nM
- GI50 [54]: 5720 nM
- TGI [54]: 16700 nM
- GI50 [55]: 2610 nM
- TGI [55]: 7020 nM
- GI50 [56]: 145 nM
- TGI [56]: 286 nM

— PubChem BioAssay (NCI)
